Assay results published in patent US11873298B2, “Compounds and uses thereof” (JANSSEN PHARMACEUTICA NV, priority 2017, dated 2024).

Key:
Type in all cases: cell-based
Ole1 = target: T1, Ole1 (Saccharomyces cerevisiae, UniProt P21147); assay: Growth inhibition of yeast strain expressing Ole1 as sole desaturase; details: for IC50 / OLE1 % Max Inhibition: yeast strain expressing Ole1 as sole desaturase
T1 construct: expressed in transfected cells; host or cells: S. cerevisiae ole1Δ strain (W303 pdr1Δ pdr3Δ background), plasmid pRS316 with TDH3 promoter and CYC1 terminator
T1 sequence (P21147 1-510): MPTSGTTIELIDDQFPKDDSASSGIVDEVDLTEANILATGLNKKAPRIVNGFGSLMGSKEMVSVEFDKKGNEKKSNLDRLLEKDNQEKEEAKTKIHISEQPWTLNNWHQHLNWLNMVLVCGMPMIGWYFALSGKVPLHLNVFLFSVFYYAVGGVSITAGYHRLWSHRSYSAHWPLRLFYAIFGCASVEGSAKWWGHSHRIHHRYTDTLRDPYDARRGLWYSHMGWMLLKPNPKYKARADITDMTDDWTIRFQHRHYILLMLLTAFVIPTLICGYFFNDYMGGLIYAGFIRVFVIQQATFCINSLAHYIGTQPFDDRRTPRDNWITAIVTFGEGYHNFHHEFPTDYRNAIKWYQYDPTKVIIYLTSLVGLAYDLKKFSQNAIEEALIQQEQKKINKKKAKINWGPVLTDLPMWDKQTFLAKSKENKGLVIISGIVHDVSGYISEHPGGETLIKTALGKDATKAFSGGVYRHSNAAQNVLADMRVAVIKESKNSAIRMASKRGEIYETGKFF
Experimental: Strain oleΔ (yeast ole1 deletion mutant) was constructed by deleting OLE1 with NAT-MX6 in BY4741, amplifying the deletion cassette from the genomic DNA of the resulting strain with primers flanking the ORF by 1000 bp upstream and downstream, transforming the resulting deletion cassette into W303 pdr1Δ pdr3Δ, and plating transformants on YPD media containing G418 (200 μg/mL) and nourseothricin ([…]) with 0.01% TWEEN®-20 and 0.5 mM oleic and palmitoleic acids.
The coding sequence of yeast OLE1 was also cloned into this plasmid). These clones were then transformed into the ole1Δ strain and plated on CSM-Ura media (CSM lacking uracil) with 2% glucose (w/v) and independent colonies were isolated and amplified.
All compound profiling experiments were performed using the same basic protocol. Different genetic backgrounds (e.g., gene deletions) or conditions (e.g., addition of oleic and palmitoleic acid) were replaced as indicated below.
Yeast were cultured using standard techniques in complete synthetic media (CSM) and yeast nitrogen base supplemented with 2% (w/v) carbon source (glucose, raffinose, or galactose) to regulate the expression of the toxic disease protein. An initial starter culture was inoculated in 3 mL CSM-Glucose media and incubated overnight in a 30° C. shaker incubator (225 rpm). Saturated morning cultures were then diluted 1:20 in fresh CSM-Raffinose media and grown for 6 h to an OD600 (optical density) of ˜0.4-0.8 at 30° C. with shaking.
Compound administration was performed in two separate steps. First, 15 μL of CSM-Galactose (induces expression of toxic protein) was dispensed into clear 384 well assay plates using a MULTIDROP™ Combi reagent dispenser. […] The cultures described above were then diluted to a 2× concentration (0.03 and 0.08 for alpha-synuclein and ApoE, final ODsoo of 0.015 and 0.04) in CSM-Galactose. For wild-type and Ole1/SCD1/SCD5 plasmid-containing strains, the 2× cell density was 0.02. […] For 96-well assays (FIGS. 1A and 1B), compound dilutions in DMSO were generated in 96 well plates and 1 μL was manually pipetted into 96 well clear bottom assay plates.
For experiments using a plasmid-borne copy of Ole1, SCD1, or SCD5 (FIGS. 3B, 6, and 7), media lacking uracil (SX-Ura, where X is glucose, raffinose, or galactose), was used for all steps of the compound profiling protocol to ensure its maintenance throughout the assay.
After yeast delivery, assay plates were incubated under humidified conditions at 30° C. for 24 to 40 h. ApoE4 rescue experiments were stopped at 24 h, aSyn experiments at 40 h, Ole1 at 24 h, and SCD1/SCD5 at 40 h. The growth of yeast was monitored by reading the ODsoo of each well using a microplate reader (Perkin Elmer EnVision™).

SCD5 = target: T2, SCD5 (Homo sapiens, UniProt Q86SK9); assay: Growth inhibition of humanized yeast strain expressing SCD5 as sole desaturase
T2 construct: host or cells: S. cerevisiae ole1Δ strain (W303 pdr1Δ pdr3Δ background), plasmid pRS316 with TDH3 promoter and CYC1 terminator
T2 sequence (Q86SK9 1-330): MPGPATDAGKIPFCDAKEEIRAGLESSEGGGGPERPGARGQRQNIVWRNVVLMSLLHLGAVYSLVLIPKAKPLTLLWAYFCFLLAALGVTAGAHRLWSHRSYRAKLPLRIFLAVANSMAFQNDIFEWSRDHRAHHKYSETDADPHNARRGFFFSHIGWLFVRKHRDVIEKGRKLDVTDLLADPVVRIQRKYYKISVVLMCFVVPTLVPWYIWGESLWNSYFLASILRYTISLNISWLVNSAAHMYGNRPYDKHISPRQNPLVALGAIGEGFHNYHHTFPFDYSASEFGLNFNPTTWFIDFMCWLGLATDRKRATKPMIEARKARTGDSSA
Summary of the method: (§1)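 Plasmid-complemented ole1Δ yeast, drug-pump deleted (pdr1Δ pdr3Δ), depend solely on the introduced Ole1, SCD1 or SCD5 desaturase. Compounds are added from DMSO to cells in uracil-free galactose medium, 2× density 0.02, and OD600 is read after 24 h or 40 h respectively.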

SCD1 = target: T3, SCD1 (Homo sapiens, UniProt O00767); assay: Growth inhibition of humanized yeast strain expressing SCD1 as sole desaturase
T3 construct: host or cells: S. cerevisiae ole1Δ strain (W303 pdr1Δ pdr3Δ background), plasmid pRS316 with TDH3 promoter and CYC1 terminator
T3 sequence (O00767 1-359): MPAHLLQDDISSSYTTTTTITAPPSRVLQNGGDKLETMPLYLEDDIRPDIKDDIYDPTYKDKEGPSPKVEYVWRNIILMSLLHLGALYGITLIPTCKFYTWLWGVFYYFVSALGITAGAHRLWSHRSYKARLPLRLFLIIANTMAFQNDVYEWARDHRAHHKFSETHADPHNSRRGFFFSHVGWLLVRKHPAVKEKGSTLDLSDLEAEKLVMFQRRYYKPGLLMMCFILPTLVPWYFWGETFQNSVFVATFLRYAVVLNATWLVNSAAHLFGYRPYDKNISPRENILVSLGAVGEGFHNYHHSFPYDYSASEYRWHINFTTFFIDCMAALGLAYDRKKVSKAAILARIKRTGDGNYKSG
Summary of the method: as §1

[1] = humanized yeast strain expressing SCD5

SMILES	IC50 (Ole1) [µM]	OLE1 % Max Inhibition (Ole1) [%]	SCD5 % Max Inhibition (SCD5; [1]) [%]	IC50 (SCD5; [1]) [µM]	IC50 (SCD1; humanized yeast strain, 40 h) [µM]	IC50 (SCD5; humanized yeast strain, 40 h) [µM]	other results
O=C(c1ccccc1)N1CCC(c2nc(Cl)no2)CC1 [Compound 351]	> 45	68.60	57.3	–	–	–	–
CC(C)n1ncc2ccc(-c3noc(C4CCN(C(=O)c5cccc(F)c5)CC4)n3)cc21 [Compound 344]	> 45	7.14	1.1	> 45	–	–	–
CC(C)c1ccc(C(=O)N2CCC(c3nc(Cl)no3)CC2)cc1 [Compound 352]	> 45	71.57	44.5	> 45	–	–	–
O=C(O)Cn1nnc(-c2cc(N3CCC(Oc4cc(F)ccc4Br)CC3)no2)n1 [MK-8245, reference compound]	–	–	–	–	–	–	growth of yeast expressing OLE1 in presence of inhibitor (Ole1; FIG. 6): resistant; half-maximal inhibitory concentration (IC50) (SCD5; SCD5 humanized strain, FIG. 6): low nanomolar
N#Cc1cccc(N2CC(C(=O)N3CCC(c4nc(Cl)no4)CC3)CC2=O)c1 (stereo not shown) [Compound 350]	> 45	71.00	56.3	–	–	–	–
CC(C)n1ncc2ccc(-c3noc(N4CCN(C(=O)OC(C)(C)C)CC4)n3)cc21 [Compound 349]	> 45	84.00	0.2	> 45	–	–	–
CC(C)(C)OC(=O)N1CCC(c2nc(-c3ccc4cn[nH]c4c3)no2)CC1 [Compound 912]	–	–	–	–	> 45	1.98	–
CC1(OC(=O)N2CCC(c3nc(-c4cccc(C5CCOC5)c4)no3)CC2)CC1 (stereo not shown) [Compound 846]	–	–	–	–	> 45	0.04	–
COC(=O)N1CCC(c2nc(-c3ccc4cnn([C@H]5CCOC5)c4c3)no2)CC1 [Compound 906]	–	–	–	–	> 45	0.89	–
CC(C)n1ncc2ccc(-c3noc(N4CCC(O)(CCCl)CC4)n3)cc21 [Compound 763]	–	–	–	–	29.5	18	–
CCC(=O)N1CCN(c2nc(-c3ccc4cnn(C5CN(C(=O)CC)C5)c4c3)no2)CC1 [Compound 930]	–	–	–	–	> 45	0.2	–
CC(C)n1ncc2ccc(-c3noc(C4CCN(C(=O)CNC(=O)c5ccc(C#N)cc5)CC4(F)F)n3)cc21 (stereo not shown) [Compound 552]	–	–	–	> 45	–	–	IC50 (SCD1; humanized yeast strain expressing SCD1): > 45 µM
CC(C)c1noc2ccc(-c3noc(C4CCN(C(=O)OC(C)(C)C)CC4)n3)cc12 [Compound 639]	–	–	–	–	–	–	IC50 (SCD1; growth inhibition of humanized yeast strain expressing human SCD1): > 45 µM; IC50 (SCD5; growth inhibition of humanized yeast strain expressing human SCD5): 4.79 µM
